Literature values as cited in paper PMC8161055, “Synthesis and α-Glucosidase Inhibition Activity of 2-[3-(Benzoyl/4-bromobenzoyl)-4-hydroxy-1,1-dioxido-2H-benzo[e][1,2]thiazin-2-yl]-N-arylacetamides: An In Silico and Biochemical Approach” (Molecules, 2021).

How the values were obtained:
aldose-reductase = molecular target: aldose-reductase; design: method as in PMID 22036211; details: cited from earlier work
SARS-CoV-2 = test system: SARS-CoV-2; design: method as in PMID 33160024; details: cited from earlier work

| Compound | IC50 (aldose-reductase) | IC50 (SARS-CoV-2) |
| --- | --- | --- |
| O=C(O)C=C1CN(Cc2ccc(Br)cc2F)S(=O)(=O)c2ccccc21 [2-(2-(4-bromo-2-fluorobenzyl)-1,1-dioxido-2H-benzo[e][1,2]thiazin-4(3H)-ylidene)acetic acid] | 110 nM | – |
| O=C(CN1C(C(=O)Nc2ccc(F)c(Cl)c2)=C(O)c2ccc(F)cc2S1(=O)=O)Nc1ccc(C(F)(F)F)cc1 [compound 4] | – | 880 nM |
